Experimental data taken from the supplement of paper PMC10307832.

What was measured:
Experiment in all cases: relative viability (nuclei count vs DMSO), 5 days (fraction); higher = more cells survive
CX-5461 + OSI-027 = compound: Cc1cnc(CNC(=O)c2c(=O)c3ccc(N4CCCN(C)CC4)nc3n3c2sc2ccccc23)cn1 [CX-5461] + COc1cccc2cc(-c3nc([C@H]4CC[C@H](C(=O)O)CC4)n4ncnc(N)c34)[nH]c12 [OSI-027] (partner 0.5 µM)
In short: (§1)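 Lung cancer cell lines, seeded in 1536-well plates, were treated the following day by pin tool with a single drug or with five library-drug doses (not always all listed) in √10 steps on top of a fixed anchor-drug dose. Cells were fixed and nuclei stained in one step after 5 days, and nuclei were counted. Relative viability is the nuclei count for treated wells divided by that for vehicle wells, reported as medians of duplicate plates.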

CX-5461 + Vorinostat = compound: Cc1cnc(CNC(=O)c2c(=O)c3ccc(N4CCCN(C)CC4)nc3n3c2sc2ccccc23)cn1 [CX-5461] + O=C(CCCCCCC(=O)Nc1ccccc1)NO [Vorinostat] (partner 1 µM)
In short: as §1

IMD-0354 + Navitoclax = compound: O=C(Nc1cc(C(F)(F)F)cc(C(F)(F)F)c1)c1cc(Cl)ccc1O [IMD-0354] + CC1(C)CCC(c2ccc(Cl)cc2)=C(CN2CCN(c3ccc(C(=O)NS(=O)(=O)c4ccc(N[C@H](CCN5CCOCC5)CSc5ccccc5)c(S(=O)(=O)C(F)(F)F)c4)cc3)CC2)C1 [Navitoclax] (partner 0.5 µM)
In short: as §1

IMD-0354 + Linsitinib = compound: O=C(Nc1cc(C(F)(F)F)cc(C(F)(F)F)c1)c1cc(Cl)ccc1O [IMD-0354] + C[C@]1(O)C[C@@H](c2nc(-c3ccc4ccc(-c5ccccc5)nc4c3)c3c(N)nccn32)C1 [Linsitinib] (partner 1 µM)
In short: as §1

Cell Line | relative viability (CX-5461 + OSI-027; first compound 0.01 µM) | relative viability (CX-5461 + OSI-027; first compound 0.03162 µM) | relative viability (CX-5461 + OSI-027; first compound 0.1 µM) | relative viability (CX-5461 + OSI-027; first compound 0.3162 µM) | relative viability (CX-5461 + OSI-027; first compound 1 µM) | relative viability (CX-5461 + Vorinostat; first compound 0.01 µM) | relative viability (CX-5461 + Vorinostat; first compound 0.03162 µM) | relative viability (CX-5461 + Vorinostat; first compound 0.1 µM) | relative viability (CX-5461 + Vorinostat; first compound 0.3162 µM) | relative viability (CX-5461 + Vorinostat; first compound 1 µM) | relative viability (IMD-0354 + Navitoclax; first compound 0.04 µM) | relative viability (IMD-0354 + Navitoclax; first compound 0.1265 µM) | relative viability (IMD-0354 + Navitoclax; first compound 0.4 µM) | relative viability (IMD-0354 + Navitoclax; first compound 1.265 µM) | relative viability (IMD-0354 + Navitoclax; first compound 4 µM) | relative viability (IMD-0354 + Linsitinib; first compound 0.04 µM) | relative viability (IMD-0354 + Linsitinib; first compound 0.1265 µM) | relative viability (IMD-0354 + Linsitinib; first compound 0.4 µM) | relative viability (IMD-0354 + Linsitinib; first compound 1.265 µM) | relative viability (IMD-0354 + Linsitinib; first compound 4 µM)
BEN | 0.346 | 0.321 | 0.286 | 0.281 | 0.284 | 0.596 | 0.588 | 0.514 | 0.536 | 0.608 | 0.0569 | 0.0541 | 0.0659 | 0.0403 | 0.0444 | 0.929 | 0.771 | 0.537 | 0.435 | 0.256
CAL-12T | 0.587 | 0.693 | 0.389 | 0.679 | 0.347 | 0.833 | 0.951 | 0.74 | 0.577 | 0.337 | 1.33 | 1.08 | 0.629 | 0.358 | 0.156 | 0.771 | 0.754 | 0.895 | 0.152 | 0.164
COR-L23 | 0.802 | 0.808 | 0.7 | 0.835 | 0.472 | 0.612 | 0.436 | 0.451 | 0.389 | 0.218 | 0.891 | 0.961 | 0.375 | 0.0982 | 0.147 | 0.764 | 0.73 | 0.388 | 0.116 | 0.158
COR-L 105 | 0.767 | 0.665 | 0.532 | 0.391 | 0.445 | 0.929 | 0.872 | 0.728 | 0.71 | 0.599 | 0.731 | 0.684 | 0.644 | 0.374 | 0.269 | 1.05 | 0.682 | 0.638 | 0.613 | 0.265
EKVX | 0.745 | 0.676 | 0.786 | 0.734 | 0.688 | 0.738 | 0.815 | 0.758 | 0.726 | 0.784 | 0.967 | 1.11 | – | 0.573 | 0.206 | 1.1 | 0.961 | – | 0.743 | 0.232
EMC-BAC-2 | 0.334 | 0.376 | 0.338 | 0.322 | 0.242 | 0.435 | 0.138 | 0.269 | 0.203 | 0.201 | 1.2 | 1.17 | 0.617 | 0.977 | 0.219 | 0.909 | 0.825 | 0.549 | 0.801 | 0.207
EPLC-272H | 0.259 | 0.288 | 0.297 | – | 0.31 | 0.47 | 0.362 | 0.362 | 0.48 | 0.458 | 1.45 | 1 | 0.54 | 1.06 | 0.25 | 1.3 | 1.09 | 0.626 | 0.945 | 0.31
H3255 | 0.568 | 0.542 | 0.559 | 0.543 | 0.568 | 0.767 | 0.771 | 0.9 | – | 0.734 | 0.394 | 0.715 | 0.408 | 0.089 | 0.144 | 0.931 | 0.916 | 0.509 | 0.314 | 0.237
HARA | 0.616 | 0.572 | 0.423 | – | 0.319 | 0.516 | 0.568 | 0.485 | – | 0.476 | 0.952 | 1.11 | 0.36 | 0.342 | 0.131 | 1.08 | 0.867 | 0.577 | 0.119 | 0.136
HCC-15 | 0.692 | 0.71 | 0.66 | 0.554 | 0.253 | 0.926 | 0.882 | 0.818 | 0.834 | 0.768 | 0.659 | 0.652 | 0.362 | 0.297 | 0.166 | 0.801 | 0.812 | 0.489 | 0.376 | 0.141
HCC-44 | 0.564 | 0.623 | 0.6 | 0.51 | 0.366 | 1.17 | 1.16 | 1.03 | 1.13 | 1.03 | 0.953 | 0.951 | 0.446 | 0.203 | 0.215 | 0.68 | 0.573 | 0.394 | 0.297 | 0.128
HCC-78 | 0.409 | 0.362 | 0.366 | 0.363 | 0.354 | 0.405 | 0.477 | 0.459 | 0.402 | 0.42 | 0.691 | 0.761 | 0.509 | 0.571 | 0.24 | 0.471 | 0.495 | 0.421 | 0.486 | 0.276
HCC-366 | 0.987 | 1 | 0.89 | 0.764 | 0.175 | 0.441 | 0.408 | 0.166 | 0.242 | 0.0455 | 1.03 | 1.17 | 0.235 | 0.27 | 0.0258 | 0.947 | 0.85 | 0.221 | 0.365 | 0.0421
HCC-827 | 0.838 | 0.828 | 0.79 | 0.757 | 0.735 | 0.854 | 0.887 | 0.85 | 0.567 | 0.923 | 0.983 | 0.955 | 0.892 | 0.759 | 0.293 | 0.898 | 0.947 | 0.82 | 0.606 | 0.282
HOP-62 | 0.824 | 0.941 | 0.83 | 0.93 | 0.594 | 0.542 | 0.856 | 0.655 | 0.271 | 0.405 | 1.02 | 0.976 | 0.504 | 0.78 | 0.295 | 1.02 | 0.898 | 0.48 | 0.93 | 0.206
LC-2-ad | 0.919 | 0.866 | 0.705 | 0.718 | 0.546 | 0.732 | 0.768 | 0.716 | 0.659 | 0.491 | 0.408 | 0.395 | 0.199 | 0.0893 | 0.105 | 1.02 | 0.844 | 0.369 | 0.108 | 0.123
